{"source": "patent US20110054033A1", "about": "“METHODS OF USING ABSCISIC ACID FOR AMELIORATING HYPERTENSION AND VASCULAR INFLAMMATION” (Virginia Tech Intellectual Properties, Inc., priority 2009, published 2011)", "key": {"ApoE-deficient mice": {"test_system": "ApoE-deficient mice", "assay": "Blood pressure by non-invasive tail-cuff system", "format": "in vivo", "settings": "for Systolic blood pressure vs control-fed mice: P<0.05", "method": "FIG. 3 is a graph showing that ABA decreases systolic blood pressure in ApoE (−/−) mice. ApoE −/− mice were fed high fat diets created with (solid line) or without (dashed line) 100 mg/kg diet racemic abscisic acid (ABA). Systolic blood pressure was assessed on days 0, 28, 56, and 72 of dietary treatment. Data were analyzed as a completely randomized design.\nFive-week old ApoE −/− mice (n=40) were housed at the animal facilities at Virginia Polytechnic Institute and State University in a room maintained at 75° F., with a 12:12 h light-dark cycle starting from 6:00 AM. All experimental procedures were approved by the Institutional Animal Care and Use Committee of Virginia Polytechnic Institute and State University and met or exceeded requirements of the Public Health Service/National Institutes of Health and the Animal Welfare Act. Mice were fed a high saturated fat (AIN-93G-based) diet containing 19.6% fat and 0.2% total cholesterol and obtaining 40.1% of Kcal from fat (4.4 Kcal/g) with or without 100 mg/kg of a racemic ABA mixture (Guri et al., J. Nutr. Biochem. 19:216-28, 2008). Systolic blood pressure was assessed on days 0, 28, 56, and 72. On day 84, fasted mice (12 h) were sacrificed by carbon dioxide asphyxiation and blood was withdrawn through cardiac puncture. Glucose concentrations of whole blood were assessed with an Accu-Chek® Glucometer (Roche, Indianapolis, Ind.) and plasma insulin was measured through insulin ELISA (Millipore, Billerica, Mass.). Aortas were collected for analysis of immune cell infiltration, histological evaluation of atherosclerotic lesions, and gene expression analyses.\nSystolic blood pressure was measured with a computerized non-invasive tail-cuff system (CODA 2 mouse rat blood pressure system; Kent Scientific Corporation, Torrington, Conn.). Conscious animals were kept in a restrainer, with a standard acclimatization time of 10 min and gentle heating of the tail before every recording session. Fifteen recordings, which were preceded by five acclimitization recordings, were performed on each animal during each timepoint."}, "[1]": {"test_system": "vascular cell adhesion molecule 1 (VCAM-1)", "assay": "Aortic gene expression by real-time RT-PCR: VCAM-1", "format": "in vivo, mice", "settings": "P=0.07", "method": "FIG. 6 are graphs showing that ABA decreases immune cell infiltration in aortas of ApoE−/− mice and reduces pro-inflammatory gene expression. ApoE −/− mice were fed high fat diets created with or without 100 mg/kg diet racemic abscisic acid (ABA). (A) Infiltration of F4/80^+CD11b^+ macrophages and CD4^+ T-cells into the aorta were assessed with flow cytometry. Gene expression in the aorta of pro-inflammatory markers (B) vascular cell adhesion molecule 1 (VCAM-1), (C) monocyte chemoattractant protein 1 (MCP-1), (D) E-selectin, (F) peroxisome proliferator-activated receptor γ (PPAR γ), and (G) CD36 were measured as a ratio to the housekeeping gene β-actin. (H) MCP-1 protein concentrations (pg/mL) were measured by ELISA. Data were analyzed as a completely randomized design.\nTotal RNA was isolated from aortas using the RNA isolation Minikit (Qiagen) according to the manufacturer's instructions. […] Each gene amplicon was purified with the MiniElute PCR Purification Kit (Qiagen) and quantitated on an agarose gel by using a DNA mass ladder (Promega). […]\nComplementary DNA (cDNA) concentrations for genes of interest were examined by real-time quantitative PCR using an iCycler IQ System and the iQ SYBR green supermix (Bio-Rad). […] Results are presented as a starting quantity of target cDNA (picograms) per microgram of total RNA. […]"}, "eNOS": {"test_system": "eNOS", "assay": "eNOS mRNA expression in HAECs by real time PCR", "format": "cell-based, human", "settings": "10 μM ABA, 24 hours, P<0.02"}, "[2]": {"settings": "ABA 100 mg/kg diet, data not shown"}}}
{"smiles": "CC1=CC(=O)CC(C)(C)C1(O)/C=C/C(C)=C\\C(=O)O", "note": "(racemic) [ABA, abscisic acid]", "values": [{"measurement": "Diastolic blood pressure vs control-fed mice", "setting": "ApoE-deficient mice; [2]", "value": "no significant affect"}, {"measurement": "Mean heart rate vs control-fed mice", "setting": "ApoE-deficient mice; [2]", "value": "no significant affect"}, {"measurement": "Systolic blood pressure vs control-fed mice", "setting": "ApoE-deficient mice; day 56, ABA 100 mg/kg diet", "value": "significantly reduced"}, {"measurement": "Systolic blood pressure vs control-fed mice", "setting": "ApoE-deficient mice; day 72, ABA 100 mg/kg diet", "value": "significantly reduced"}, {"measurement": "VCAM-1 mRNA expression in the aortic roots vs control", "setting": "[1]", "value": "reduced, though not to statistical significance"}, {"measurement": "eNOS mRNA levels vs vehicle", "setting": "eNOS", "value": "significantly (P<0.02) increased"}]}
